In ChEMBL document CHEMBL4417631, “Oral peptide inhibitors of interleukin-23 receptor and their use to treat inflammatory bowel diseases” (2017):
Where a SMILES comes first, the peptide text is derived from it. [ ]: non-standard residue; d: D form. hLeu = CC(C)CC[C@H](N)C(=O)O

Target: T1, Interleukin-23 receptor (Homo sapiens, UniProt Q5VWK5)
T1 sequence (Q5VWK5 whole entry): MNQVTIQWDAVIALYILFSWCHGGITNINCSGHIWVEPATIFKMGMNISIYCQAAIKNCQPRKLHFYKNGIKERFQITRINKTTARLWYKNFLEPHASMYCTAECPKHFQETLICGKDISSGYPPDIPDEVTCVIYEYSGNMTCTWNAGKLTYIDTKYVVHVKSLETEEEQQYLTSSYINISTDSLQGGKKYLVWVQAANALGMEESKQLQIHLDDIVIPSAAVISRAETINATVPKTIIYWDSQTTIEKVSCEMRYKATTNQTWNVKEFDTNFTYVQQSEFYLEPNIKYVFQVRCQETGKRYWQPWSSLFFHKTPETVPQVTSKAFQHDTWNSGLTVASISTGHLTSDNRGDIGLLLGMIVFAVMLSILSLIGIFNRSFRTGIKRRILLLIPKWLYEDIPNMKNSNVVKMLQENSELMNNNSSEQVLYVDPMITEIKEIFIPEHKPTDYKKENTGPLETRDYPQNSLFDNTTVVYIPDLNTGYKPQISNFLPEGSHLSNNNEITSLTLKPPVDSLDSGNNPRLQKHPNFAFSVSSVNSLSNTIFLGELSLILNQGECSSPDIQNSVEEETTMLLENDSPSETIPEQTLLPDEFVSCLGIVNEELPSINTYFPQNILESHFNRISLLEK
Test: Inhibition of interleukin-23 binding to human interleukin-23 receptor incubated for 2 hrs by competitive binding ELISA

CC(C)[C@H](NC(=O)[C@H](Cc1c[nH]c2ccccc12)NC(=O)[C@H](CC(=O)O)NC(=O)[C@H](C)NC(=O)[C@@H](N)CS)C(=O)N[C@@H](CS)C(=O)N[C@@H](Cc1ccc(O)cc1)C(=O)N[C@H](CC(=O)N[C@@H](Cc1cnc[nH]1)C(=O)N[C@H](C(=O)N[C@@H](Cc1ccccc1)C(=O)NCC(N)=O)[C@@H](C)O)Cc1c[nH]c2ccccc12
IC50: > 1000 nM

C[C@H](NC(=O)[C@@H](N)CS)C(=O)N[C@@H](CC(=O)O)C(=O)N[C@@H](Cc1c[nH]c2ccccc12)C(=O)N[C@@H](CS)C(=O)N[C@@H](CS)C(=O)N[C@@H](Cc1ccc(O)cc1)C(=O)N[C@@H](Cc1c[nH]c2ccccc12)C(=O)N[C@@H](CS)C(=O)N[C@H](C(=O)N[C@@H](Cc1ccccc1)C(=O)NCC(N)=O)[C@@H](C)O (H-CADWCCYWCTFG-NH2)
IC50: > 1000 nM

CC(C)[C@H](NC(=O)[C@H](Cc1c[nH]c2ccccc12)NC(=O)[C@H](CC(N)=O)NC(=O)[C@H](CO)NC(=O)[C@@H](N)CS)C(=O)N[C@@H](CS)C(=O)N[C@@H](Cc1ccc(O)cc1)C(=O)N[C@@H](Cc1c[nH]c2ccccc12)C(=O)N[C@@H](Cc1cnc[nH]1)C(=O)N[C@H](C(=O)N[C@@H](Cc1ccc(O)cc1)C(=O)NCC(N)=O)[C@@H](C)O (H-CSNWVCYWHTYG-NH2)
IC50: < 500 nM

CCCCCCCC(=O)N[C@H](C(=O)N[C@@H](CCC(N)=O)C(=O)N[C@H](C(=O)N[C@@H](Cc1c[nH]c2ccccc12)C(=O)N[C@@H](CCC(N)=O)C(=O)N[C@H](C(=O)N[C@@H](Cc1ccc(OC)cc1)C(=O)N[C@@H](Cc1ccc2ccccc2c1)C(=O)N[C@@](C)(CCCCN)C(=O)N[C@@H](CCCCNC(C)=O)C(=O)N[C@@H](CC(N)=O)C(=O)NCC(N)=O)C(C)(C)S)[C@@H](C)O)C(C)(C)S
IC50: 100 to 1000 nM

CC(=O)N[C@@H](CS)C(=O)N[C@@H](C)C(=O)N[C@@H](CC(=O)O)C(=O)N[C@@H](Cc1c[nH]c2ccccc12)C(=O)N[C@H](C(=O)N[C@@H](CS)C(=O)N[C@@H](Cc1ccc(O)cc1)C(=O)N[C@@H](Cc1c[nH]c2ccccc12)C(=O)N[C@@H](Cc1cnc[nH]1)C(=O)N[C@H](C(=O)N[C@@H](Cc1ccccc1)C(=O)NCC(=O)N[C@@H](C)C(=O)N1CC[C@H]1C(=O)N[C@H](CCCCN)C(=O)O)[C@@H](C)O)C(C)C
IC50: 100 to 1000 nM

CC(C)CC[C@H](NC(=O)[C@H](Cc1c[nH]c2ccccc12)NC(=O)[C@H](Cc1ccc(O)cc1)NC(=O)[C@H](CS)NC(=O)[C@H](CCC(N)=O)NC(=O)[C@H](Cc1c[nH]c2ccccc12)NC(=O)[C@@H](NC(=O)[C@H](CCC(N)=O)NC(=O)[C@@H](N)CS)[C@@H](C)O)C(=O)N[C@@H](CCC(=O)O)C(=O)N[C@@H](CC(N)=O)C(=O)NCC(=O)NCCOCC(=O)N[C@H](CCCCN)C(N)=O
IC50: < 500 nM

C[C@H](N)C(=O)N[C@@H](C)C(=O)N[C@@H](CC(=O)O)C(=O)N[C@@H](Cc1c[nH]c2ccccc12)C(=O)N[C@@H](CS)C(=O)N[C@@H](C)C(=O)N[C@@H](Cc1ccc(O)cc1)C(=O)N[C@@H](Cc1c[nH]c2ccccc12)C(=O)N[C@@H](CS)C(=O)N[C@H](C(=O)N[C@@H](Cc1ccccc1)C(=O)NCC(N)=O)[C@@H](C)O (H-AADWCAYWCTFG-NH2)
IC50: > 1000 nM

CC(=O)N[C@@H](CS)C(=O)N[C@@H](C)C(=O)N[C@@H](CC(=O)O)C(=O)N[C@@H](Cc1c[nH]c2ccccc12)C(=O)N[C@H](C(=O)N[C@@H](CS)C(=O)N[C@@H](Cc1ccc(O)cc1)C(=O)N[C@@H](Cc1cccc2ccccc12)C(=O)N[C@@H](Cc1cnc[nH]1)C(=O)N[C@H](C)C(=O)N[C@@H](Cc1ccccc1)C(=O)NCC(N)=O)C(C)C
IC50: > 1000 nM

CC(=O)N[C@@H](C)C(=O)N[C@H](C(=O)N[C@@H](CC(=O)O)C(=O)N[C@@H](Cc1c[nH]c2ccccc12)C(=O)N[C@H](C(=O)N[C@@H](CS)C(=O)N[C@@H](Cc1ccc(O)cc1)C(=O)N[C@@H](Cc1c[nH]c2ccccc12)C(=O)N[C@@H](CCCNC(=N)N)C(=O)N[C@@H](CCCCN)C(=O)N[C@@H](Cc1ccccc1)C(=O)NCC(=O)NCCOCC(=O)N[C@H](CCCCN)C(N)=O)C(C)C)C(C)(C)S
IC50: 100 to 1000 nM

C[C@H](NC(=O)[C@@H](N)CS)C(=O)N[C@@H](CC(=O)O)C(=O)N[C@@H](Cc1c[nH]c2ccccc12)C(=O)N(C)CC(=O)N[C@@H](CS)C(=O)N[C@@H](Cc1ccc(O)cc1)C(=O)N[C@@H](Cc1cccc2ccccc12)C(=O)N[C@@H](Cc1cnc[nH]1)C(=O)N[C@H](C(=O)N[C@@H](Cc1ccccc1)C(=O)O)[C@@H](C)O
IC50: > 1000 nM

CC(=O)N[C@@H](CS)C(=O)N[C@@H](CCC(N)=O)C(=O)N[C@H](C(=O)N[C@H](C(=O)N[C@@H](CCC(N)=O)C(=O)N[C@@H](CS)C(=O)N[C@@H](Cc1ccc(O)cc1)C(=O)N[C@@H](Cc1c[nH]c2ccccc12)C(=O)N[C@@H](CCC(C)C)C(=O)N[C@@H](CCC(=O)O)C(=O)N[C@@H](CC(N)=O)C(=O)NCC(N)=O)[C@@H](C)O)[C@@H](C)O (Ac-CQTTQCYW[hLeu]ENG-NH2)
IC50: > 10000 nM

CC(=O)N[C@H](CCCCN)C(=O)NCCC(=O)N[C@@H](CS)C(=O)N[C@@H](C)C(=O)N[C@@H](CC(=O)O)C(=O)N[C@@H](Cc1c[nH]c2ccccc12)C(=O)N[C@H](C(=O)N[C@@H](CS)C(=O)N[C@@H](Cc1ccc(O)cc1)C(=O)N[C@@H](Cc1c[nH]c2ccccc12)C(=O)N[C@@H](Cc1cnc[nH]1)C(=O)N[C@H](C(=O)N[C@@H](Cc1ccccc1)C(=O)NCC(=O)O)[C@@H](C)O)C(C)C
IC50: > 1000 nM

CC(=O)N[C@H](C(=O)N[C@@H](CCC(N)=O)C(=O)N[C@H](C(=O)N[C@@H](Cc1c[nH]c2ccccc12)C(=O)N[C@@H](CCC(N)=O)C(=O)N[C@H](C(=O)N[C@@H](Cc1ccc(Cl)c(Cl)c1)C(=O)N[C@@H](Cc1ccc2ccccc2c1)C(=O)N[C@@](C)(CCCN)C(=O)N[C@@H](CCC(=O)O)C(=O)N[C@@H](CC(N)=O)C(=O)NCC(N)=O)C(C)(C)S)[C@@H](C)O)C(C)(C)S
IC50: 100 to 1000 nM

CC(=O)N[C@@H](CS)C(=O)N[C@@H](CCC(N)=O)C(=O)N[C@H](C(=O)N[C@@H](Cc1c[nH]c2ccccc12)C(=O)N[C@@H](CCC(N)=O)C(=O)N[C@@H](CS)C(=O)N[C@@H](Cc1ccc(O)cc1)C(=O)N[C@@H](Cc1c[nH]c2ccccc12)C(=O)N[C@@H](CCONC(=N)N)C(=O)N[C@@H](CCC(=O)O)C(=O)N[C@@H](CC(N)=O)C(=O)NCC(=O)NCCOCC(=O)N[C@H](CCCCN)C(N)=O)[C@@H](C)O
IC50: < 500 nM

CC(C)[C@H](NC(=O)[C@H](Cc1cnc[nH]1)NC(=O)[C@H](Cc1c[nH]c2ccccc12)NC(=O)[C@H](Cc1ccc(O)cc1)NC(=O)[C@H](CS)NC(=O)[C@@H](NC(=O)[C@H](Cc1c[nH]c2ccccc12)NC(=O)[C@H](CC(=O)O)NC(=O)[C@H](CO)NC(=O)[C@@H](N)CS)C(C)C)C(=O)N[C@@H](Cc1ccc(O)cc1)C(=O)NCC(N)=O (H-CSDWVCYWHVYG-NH2)
IC50: 500 to 1000 nM

CC(=O)N[C@@H](CS)C(=O)N[C@@H](C)C(=O)N[C@@H](CC(=O)O)C(=O)N[C@@H](Cc1c[nH]c2ccccc12)C(=O)N[C@H](C(=O)N[C@@H](CS)C(=O)N[C@@H](Cc1ccc(O)cc1)C(=O)N[C@@H](Cc1cccc2ccccc12)C(=O)N[C@@H](Cc1cnc[nH]1)C(=O)NC(C)(C)C(=O)N[C@@H](Cc1ccccc1)C(=O)NCC(N)=O)C(C)C
IC50: > 1000 nM

CC(=O)N[C@@H](CS)C(=O)N[C@@H](CCCNC(=N)N)C(=O)N[C@H](C(=O)N[C@@H](Cc1c[nH]c2ccccc12)C(=O)N[C@@H](CCC(=O)O)C(=O)N[C@@H](CS)C(=O)N[C@@H](Cc1ccc(O)cc1)C(=O)N[C@@H](Cc1c[nH]c2ccccc12)C(=O)N[C@@H](Cc1cnc[nH]1)C(=O)N[C@@H](CCC(=O)O)C(=O)N[C@@H](CCC(N)=O)C(=O)N[C@@H](CO)C(N)=O)[C@@H](C)O (Ac-CRTWECYWHEQS-NH2)
IC50: < 500 nM

CC(C)[C@H](NC(=O)[C@H](Cc1c[nH]c2ccccc12)NC(=O)[C@H](CC(=O)O)NC(=O)[C@H](C)NC(=O)[C@@H](N)CS)C(=O)N[C@@H](CS)C(=O)N[C@@H](Cc1ccc(O)cc1)C(=O)N[C@@H](Cc1c[nH]c2ccccc12)C(=O)N[C@@H](Cc1cnc[nH]1)C(=O)N[C@H](C(=O)N[C@@H](Cc1ccccc1)C(=O)NCC(=O)N[C@@H](CCCCNC(=O)COCC(=O)NCCCC[C@H](NC(=O)CNC(=O)[C@H](Cc1ccccc1)NC(=O)[C@@H](NC(=O)[C@H](Cc1cnc[nH]1)NC(=O)[C@H](Cc1c[nH]c2ccccc12)NC(=O)[C@H](Cc1ccc(O)cc1)NC(=O)[C@H](CS)NC(=O)[C@@H](NC(=O)[C@H](Cc1c[nH]c2ccccc12)NC(=O)[C@H](CC(=O)O)NC(=O)[C@H](C)NC(=O)[C@@H](N)CS)C(C)C)[C@@H](C)O)C(=O)O)C(=O)O)[C@@H](C)O
IC50: 1000 to 10000 nM

CC[C@H](C)[C@H](NC(=O)[C@H](Cc1cnc[nH]1)NC(=O)[C@H](Cc1c[nH]c2ccccc12)NC(=O)[C@H](Cc1ccc(O)cc1)NC(=O)[C@H](CS)NC(=O)[C@H](CCC(=O)O)NC(=O)[C@H](Cc1c[nH]c2ccccc12)NC(=O)[C@H](CC(=O)O)NC(=O)[C@H](CO)NC(=O)[C@@H](N)CS)C(=O)N[C@@H](Cc1ccccc1)C(=O)NCC(N)=O (H-CSDWECYWHIFG-NH2)
IC50: > 1000 nM

CC(=O)N[C@@H](CS)C(=O)N[C@@H](C)C(=O)N[C@@H](CC(=O)O)C(=O)N[C@@H](Cc1c[nH]c2ccccc12)C(=O)N[C@H](C(=O)N[C@@H](CS)C(=O)N[C@@H](Cc1ccc(O)cc1)C(=O)N[C@@H](Cc1c[nH]c2ccccc12)C(=O)N[C@@H](Cc1cnc[nH]1)C(=O)N[C@H](C(=O)N[C@@H](Cc1ccccc1)C(=O)NCC(=O)NCCOCCC(=O)N[C@@H](CCCCN)C(=O)O)[C@@H](C)O)C(C)C
IC50: < 500 nM
